Measurements taken from US10357576B2, “18F-labelled folate/antifolate analogues” (MERCK & CIE, priority 2012, dated 2019).

Experiments:
[1] = Stability experiments using liver microsomes (human); format: in vitro ADME; conditions: 37° C., 1 h, NADPH regenerating system, radio-UPLC
Source text: General: Reagents and solvents were purchased from Sigma-Aldrich Chemie GmbH, Acros Organics or VWR International AG if nothing else is mentioned. All chemicals were used as supplied. Human and mouse (female CD-1) microsomes and the NADPH regenerating systems were purchased from BD biosciences.
(§1) Radio-UPLC: For stability studies, an ultra-performance liquid chromatography (UPLC™, Waters) system, equipped with an Acquity UPLC BEH C18 column (1.7 μm, 2.1×50 mm, Waters) and a coincidence detector (FlowStar LB513, Berthold) was used with following solvent system: eluent A was a NaH2PO4/Na2HPO4 buffer (0.05 M, pH 7.4) and eluent B was acetonitrile. A gradient from 0-4.0 min 100%-40% A, at a flow rate of 0.6 ml/min was used.
To a mixture of KH2PO4/K2HPO4 buffer (pH 7.4, 0.5 M, 200 μl), NADPH regenerating system A (50 μl), NADPH regenerating system B (10 μl), an aliquot of [^18F]-3′-aza-2′-fluorofolic acid (38 μl, approx. 15 MBq) was added and filled up with water (677 μl) to a volume of 975 μl and preincubated at 37° C. Then, mouse or human liver microsomes (20 mg/ml, 25 μl) were added and incubated at 37° C. After several time points (0, 20, 40 and 60 min) aliquots (100 μl) were drawn and the enzymatical reaction was stopped by purring the solution into ice-cold methanol (200 μl). […] Every time point was performed as a triplicate and analyzed on a radio-UPLC system. […]

KB tumor xenografts = experiment: Biodistribution studies in nude mice bearing KB tumor xenografts; format: in vivo, nude mice (CD-1 Foxn-1/nu)
Source text: In vivo experiments were approved by the local veterinarian department and conducted in accordance to the Swiss law of animal protection. Six to eight-week-old female, athymic nude mice (CD-1 Foxn-1/nu) were purchased from Charles River Laboratories (Sulzfeld, Germany). The animals were fed with a folate-deficient rodent diet starting 5 days prior to the tumor cell inoculation. Mice were inoculated with KB cells (5×10^6 cells in […] PBS) into the subcutis of each shoulder. Animal experiments were performed approximately 14 days after tumor cell inoculation. Biodistribution studies were performed in triplicate. [^18F]-3′-aza-2′-fluorofolic acid was diluted in PBS pH 7.4 to the desired radioactivity concentration (˜5 MBq per mouse) for immediate administration via a lateral tail vein.
[…] Selected tissues and organs were collected, weighed, and counted for radioactivity in a −counter. The results were listed as percentage of the injected dose per gram of tissue weight [% ID/g], using reference counts from a definite sample of the original injectate that was counted at the same time.
The obtained are summarized in Table 2 and represent the percentage injected dose per gram tissue [% ID/g] averaged from three or four animals (Table 2).

Human plasma stability = format: in vitro ADME; conditions: 37° C., 4 h, radio-UPLC
Method: as §1
The radiotracer was tested with regard to its stability in human blood plasma over a period of 4 hours at 37° C. The formulated product (200 μL) was diluted with sodium phosphate buffer (100 μl) and an aliquot (60 μl, 15 MBq) was added to human plasma (500 μL), pre-incubated at 37° C. The mixture was shaken on a Thermomixer compact (Eppendorf) at 37° C. and 500 rpm. After several time points (0, 30, 60, 120, 150 and 240 min) aliquots were taken after tracer addition. Each aliquot (70 μl) was added to ice-cold MeOH (150 μl) to precipitate the proteins. To separate the supernatant from the precipitate, the suspension was centrifuged for 10 min at 13400 rpm (Eppendorf MiniSpin) at room temperature. The supernatant was passed through a microfilter (Sartorius Stedim Biotech GmbH, Minisart RC 25, 0.45 μm) and was analyzed on the radio-UPLC system.

[2] = 60 min p.i. blockade (100 μg folic acid 10 min before radiotracer)

- Stability in human liver microsomes [1]: completely stable
- % ID/g in Blood (KB tumor xenografts; 30 min p.i., i.v.): 1.2 ± 0.3 % ID/g
- % ID/g in Bone (KB tumor xenografts; 30 min p.i., i.v.): 2.1 ± 0.3 % ID/g
- % ID/g in Feces (KB tumor xenografts; 30 min p.i., i.v.): 1.2 ± 0.2 % ID/g
- % ID/g in Gallbladder (KB tumor xenografts; 30 min p.i., i.v.): 8.1 ± 2.9 % ID/g
- % ID/g in Heart (KB tumor xenografts; 30 min p.i., i.v.): 2.1 ± 0.2 % ID/g
- % ID/g in Intestine (KB tumor xenografts; 30 min p.i., i.v.): 1.4 ± 0.1 % ID/g
- % ID/g in Kidneys (KB tumor xenografts; 30 min p.i., i.v.): 54.8 ± 6.1 % ID/g
- % ID/g in Liver (KB tumor xenografts; 30 min p.i., i.v.): 13.7 ± 2.9 % ID/g
- % ID/g in Lungs (KB tumor xenografts; 30 min p.i., i.v.): 2.0 ± 0.3 % ID/g
- % ID/g in Muscle (KB tumor xenografts; 30 min p.i., i.v.): 1.7 ± 0.4 % ID/g
- % ID/g in Salivary glands (KB tumor xenografts; 30 min p.i., i.v.): 9.0 ± 1.3 % ID/g
- % ID/g in Spleen (KB tumor xenografts; 30 min p.i., i.v.): 1.3 ± 0.2 % ID/g
- % ID/g in Stomach (KB tumor xenografts; 30 min p.i., i.v.): 2.8 ± 0.5 % ID/g
- % ID/g in Tumor (KB tumor xenografts; 30 min p.i., i.v.): 11.7 ± 0.9 % ID/g
- Ratio Tumor/Blood (KB tumor xenografts; 30 min p.i., i.v.): 11.1 ± 4.1
- Ratio Tumor/Kidneys (KB tumor xenografts; 30 min p.i., i.v.): 0.2 ± 0.1
- Ratio Tumor/Liver (KB tumor xenografts; 30 min p.i., i.v.): 0.9 ± 0.2
- % ID/g in Blood (KB tumor xenografts; [2]): 0.8 ± 0.3 % ID/g
- % ID/g in Bone (KB tumor xenografts; [2]): 0.6 ± 0.3 % ID/g
- % ID/g in Feces (KB tumor xenografts; [2]): 6.0 ± 1.1 % ID/g
- % ID/g in Gallbladder (KB tumor xenografts; [2]): 15.8 ± 9.3 % ID/g
- % ID/g in Heart (KB tumor xenografts; [2]): 0.4 ± 0.2 % ID/g
- % ID/g in Intestine (KB tumor xenografts; [2]): 1.3 ± 0.6 % ID/g
- % ID/g in Kidneys (KB tumor xenografts; [2]): 5.9 ± 4.5 % ID/g
- % ID/g in Liver (KB tumor xenografts; [2]): 10.9 ± 3.4 % ID/g
- % ID/g in Lungs (KB tumor xenografts; [2]): 0.7 ± 0.3 % ID/g
- % ID/g in Muscle (KB tumor xenografts; [2]): 0.3 ± 0.1 % ID/g
- % ID/g in Salivary glands (KB tumor xenografts; [2]): 0.6 ± 0.2 % ID/g
- % ID/g in Spleen (KB tumor xenografts; [2]): 0.4 ± 0.2 % ID/g
- % ID/g in Stomach (KB tumor xenografts; [2]): 0.6 ± 0.3 % ID/g
- % ID/g in Tumor (KB tumor xenografts; [2]): 1.7 ± 0.4 % ID/g
- Ratio Tumor/Blood (KB tumor xenografts; [2]): 2.2 ± 0.3
- Ratio Tumor/Kidneys (KB tumor xenografts; [2]): 0.4 ± 0.2
- Ratio Tumor/Liver (KB tumor xenografts; [2]): 0.2 ± 0.1
- % ID/g in Blood (KB tumor xenografts; 60 min p.i., i.v.): 0.6 ± 0.1 % ID/g
- % ID/g in Bone (KB tumor xenografts; 60 min p.i., i.v.): 1.6 ± 0.3 % ID/g
- % ID/g in Feces (KB tumor xenografts; 60 min p.i., i.v.): 3.0 ± 2.0 % ID/g
- % ID/g in Gallbladder (KB tumor xenografts; 60 min p.i., i.v.): 8.4 ± 1.8 % ID/g
- % ID/g in Heart (KB tumor xenografts; 60 min p.i., i.v.): 1.9 ± 0.3 % ID/g
- % ID/g in Intestine (KB tumor xenografts; 60 min p.i., i.v.): 1.9 ± 0.2 % ID/g
- % ID/g in Kidneys (KB tumor xenografts; 60 min p.i., i.v.): 53.6 ± 3.2 % ID/g
- % ID/g in Liver (KB tumor xenografts; 60 min p.i., i.v.): 10.6 ± 0.9 % ID/g
- % ID/g in Lungs (KB tumor xenografts; 60 min p.i., i.v.): 1.5 ± 0.2 % ID/g
- % ID/g in Muscle (KB tumor xenografts; 60 min p.i., i.v.): 1.2 ± 0.2 % ID/g
- % ID/g in Salivary glands (KB tumor xenografts; 60 min p.i., i.v.): 15.0 ± 6.1 % ID/g
- % ID/g in Spleen (KB tumor xenografts; 60 min p.i., i.v.): 1.9 ± 0.1 % ID/g
- % ID/g in Stomach (KB tumor xenografts; 60 min p.i., i.v.): 2.8 ± 0.9 % ID/g
- % ID/g in Tumor (KB tumor xenografts; 60 min p.i., i.v.): 11.9 ± 1.7 % ID/g
- Ratio Tumor/Blood (KB tumor xenografts; 60 min p.i., i.v.): 21.6 ± 2.3
- Ratio Tumor/Kidneys (KB tumor xenografts; 60 min p.i., i.v.): 0.2 ± 0.1
- Ratio Tumor/Liver (KB tumor xenografts; 60 min p.i., i.v.): 1.1 ± 0.2
- % ID/g in Blood (KB tumor xenografts; 90 min p.i., i.v.): 0.6 ± 0.1 % ID/g
- % ID/g in Bone (KB tumor xenografts; 90 min p.i., i.v.): 1.6 ± 0.3 % ID/g
- % ID/g in Feces (KB tumor xenografts; 90 min p.i., i.v.): 1.8 ± 0.3 % ID/g
- % ID/g in Gallbladder (KB tumor xenografts; 90 min p.i., i.v.): 9.3 ± 0.6 % ID/g
- % ID/g in Heart (KB tumor xenografts; 90 min p.i., i.v.): 1.8 ± 0.1 % ID/g
- % ID/g in Intestine (KB tumor xenografts; 90 min p.i., i.v.): 2.3 ± 0.4 % ID/g
- % ID/g in Kidneys (KB tumor xenografts; 90 min p.i., i.v.): 57.3 ± 8.4 % ID/g
- % ID/g in Liver (KB tumor xenografts; 90 min p.i., i.v.): 10.3 ± 2.4 % ID/g
- % ID/g in Lungs (KB tumor xenografts; 90 min p.i., i.v.): 1.6 ± 0.3 % ID/g
- % ID/g in Muscle (KB tumor xenografts; 90 min p.i., i.v.): 1.5 ± 0.4 % ID/g
- % ID/g in Salivary glands (KB tumor xenografts; 90 min p.i., i.v.): 14.1 ± 0.9 % ID/g
- % ID/g in Spleen (KB tumor xenografts; 90 min p.i., i.v.): 2.2 ± 0.2 % ID/g
- % ID/g in Stomach (KB tumor xenografts; 90 min p.i., i.v.): 2.7 ± 0.1 % ID/g
- % ID/g in Tumor (KB tumor xenografts; 90 min p.i., i.v.): 12.6 ± 1.8 % ID/g
- Ratio Tumor/Blood (KB tumor xenografts; 90 min p.i., i.v.): 23.8 ± 4.1
- Ratio Tumor/Kidneys (KB tumor xenografts; 90 min p.i., i.v.): 0.2 ± 0.1
- Ratio Tumor/Liver (KB tumor xenografts; 90 min p.i., i.v.): 1.3 ± 0.4
- Stability in human blood plasma (Human plasma stability): completely stable
Structure (SMILES): Nc1nc2ncc(CNc3ccc(C(=O)N[C@@H](CCC(=O)O)C(=O)O)c([18F])n3)nc2c(=O)[nH]1 [3′-aza-2′-[^18F]fluorofolic acid]
